This assay deals with T1, PTP1B (protein tyrosine phosphatase 1B) (Homo sapiens, UniProt P18031).
T1 construct: gene PTPN1
T1 sequence (P18031 1-435): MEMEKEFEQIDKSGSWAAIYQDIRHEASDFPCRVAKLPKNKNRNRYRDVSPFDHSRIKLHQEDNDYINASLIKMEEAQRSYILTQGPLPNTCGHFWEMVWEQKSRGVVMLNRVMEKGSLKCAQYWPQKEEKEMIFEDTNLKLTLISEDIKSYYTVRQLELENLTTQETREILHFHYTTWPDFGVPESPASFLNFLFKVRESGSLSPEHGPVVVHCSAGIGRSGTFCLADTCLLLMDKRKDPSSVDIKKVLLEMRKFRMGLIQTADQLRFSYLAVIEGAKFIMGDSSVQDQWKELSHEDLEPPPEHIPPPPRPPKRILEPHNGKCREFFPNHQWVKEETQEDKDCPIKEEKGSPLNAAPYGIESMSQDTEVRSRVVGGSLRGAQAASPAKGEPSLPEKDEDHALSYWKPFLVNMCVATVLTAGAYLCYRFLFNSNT
The assay is described as follows: p-NPP hydrolysis assay with recombinant human PTP1B; Lineweaver-Burk kinetics. It counts as biochemical.

The values below come from publication PMC6381099, “Hydroxyoleoside-type seco-iridoids from Symplocos cochinchinensis and their insulin mimetic activity” (Scientific Reports, 2019).

A word on the IC50: it is the concentration that inhibits the measured activity by half. As for `O=C(O)C[C@@H]1C(C(=O)O)=CO[C@@H](O[C@@H]2O[C@H](CO)[C@@H](O)[C@H](O)[C@H]2O)C1=CCOC(=O)/C=C/c1ccc(O)cc1` [compound 3, Symplocochinside C], the 50% inhibitory concentration (IC50) amounted to 19.5 ± 0.76 µM.
